In the supplement of paper PMC10307832:

Experiments:
Assay in all cases: relative viability (nuclei count vs DMSO), 5 days (fraction); higher = more cells survive
[1] = compound: CN(c1ncccc1CNc1nc(Nc2ccc3c(c2)CC(=O)N3)ncc1C(F)(F)F)S(C)(=O)=O + CC(=O)Nc1cccc(-n2c(=O)n(C3CC3)c(=O)c3c(Nc4ccc(I)cc4F)n(C)c(=O)c(C)c32)c1 [Trametinib] (partner 0.02 µM)
Method in brief: (§1)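 A single step with final 0.05% Triton X-100, 1% formaldehyde and 1 ug/ml Hoechst fixed the cells and stained nuclei 5 days after treatment. Lung cancer cell lines in 1536-well plates had been treated by pin tool the day after seeding with one drug alone or a fixed anchor-drug dose plus five library-drug doses (not always all listed) in √10 steps, and nuclei were counted on 4× images. Relative viability is the ratio of nuclei in treated wells to nuclei in vehicle wells, taken as the median of duplicate plates.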

[2] = compound: CN(c1ncccc1CNc1nc(Nc2ccc3c(c2)CC(=O)N3)ncc1C(F)(F)F)S(C)(=O)=O + N=C(N)NC(=N)NCCc1ccccc1 [Phenformin] (partner 250 µM)
Method in brief: as §1

[3] = compound: CN(c1ncccc1CNc1nc(Nc2ccc3c(c2)CC(=O)N3)ncc1C(F)(F)F)S(C)(=O)=O + COc1cccc2cc(-c3nc([C@H]4CC[C@H](C(=O)O)CC4)n4ncnc(N)c34)[nH]c12 [OSI-027] (partner 0.5 µM)
Method in brief: as §1

[4] = compound: CN(c1ncccc1CNc1nc(Nc2ccc3c(c2)CC(=O)N3)ncc1C(F)(F)F)S(C)(=O)=O
Method in brief: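 Nuclei counted with MetaXpress define viability as the ratio of treated to vehicle wells, given as a median across plates. The lung cancer cell lines were in 1536-well plates, pinned with five √10-spaced library-drug doses and imaged at 4× after 5 days and Hoechst staining. Plates passed with control CV below 25% and at least one doubling.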

Cell Line | relative viability ([1]; first compound 0.01 µM) | relative viability ([1]; first compound 0.03162 µM) | relative viability ([1]; first compound 0.1 µM) | relative viability ([1]; first compound 0.3162 µM) | relative viability ([1]; first compound 1 µM) | relative viability ([2]; first compound 0.01 µM) | relative viability ([2]; first compound 0.03162 µM) | relative viability ([2]; first compound 0.1 µM) | relative viability ([2]; first compound 0.3162 µM) | relative viability ([2]; first compound 1 µM) | relative viability ([3]; first compound 0.01 µM) | relative viability ([3]; first compound 0.03162 µM) | relative viability ([3]; first compound 0.1 µM) | relative viability ([3]; first compound 0.3162 µM) | relative viability ([3]; first compound 1 µM) | relative viability ([4]; 0.01 µM) | relative viability ([4]; 0.03162 µM) | relative viability ([4]; 0.1 µM) | relative viability ([4]; 0.3162 µM) | relative viability ([4]; 1 µM)
NCI-H2170 | 0.964 | 0.906 | 0.895 | 0.956 | 0.94 | 0.404 | 0.47 | 0.424 | 0.332 | 0.323 | 0.672 | 0.695 | 0.679 | 0.791 | 0.752 | 0.962 | 1.13 | 1 | 0.965 | 0.981
NCI-H2228 | 0.553 | 0.81 | 0.473 | 0.384 | 0.483 | 0.321 | 0.471 | 0.306 | 0.331 | 0.292 | 0.825 | 0.827 | 0.563 | 0.514 | 0.464 | 1.01 | 1.23 | 1.23 | 1.01 | 0.921
NCI-H2342 | 0.906 | 0.819 | 0.753 | 0.774 | 0.806 | 0.638 | 0.563 | 0.475 | 0.522 | 0.475 | 0.579 | 0.614 | 0.617 | 0.519 | 0.57 | 0.884 | 1.02 | 0.791 | 0.962 | 0.854
NCI-H2347 | 0.276 | 0.268 | 0.27 | 0.277 | 0.255 | 0.37 | 0.38 | 0.6 | 0.407 | 0.221 | 0.339 | 0.416 | 0.326 | 0.449 | 0.314 | 1.09 | 0.942 | 0.978 | 0.877 | 0.829
NCI-H2405 | 0.633 | 0.676 | 0.596 | 0.596 | 0.584 | 0.402 | 0.376 | 0.385 | 0.248 | 0.392 | 0.617 | 0.676 | 0.572 | 0.51 | 0.533 | 1.06 | 0.935 | 0.931 | 0.8 | 0.82
NCI-H3122 | 0.244 | 0.257 | 0.214 | 0.22 | 0.201 | 0.389 | 0.373 | 0.36 | 0.317 | 0.354 | 0.976 | 1.07 | 0.762 | 1.06 | 0.954 | 0.994 | 1.06 | 1.01 | 1.03 | 0.953
PC-3 [JPC-3] | 0.669 |  | 0.712 | 0.696 | 0.554 | 0.522 | 0.488 | 0.505 | 0.471 | 0.481 | 0.722 | 0.742 | 0.739 | 0.805 | 0.768 | 0.998 | 1.05 | 0.981 | 1.03 | 0.943
PC-14 | 0.82 | 0.909 | 0.891 | 0.726 | 0.619 | 0.726 | 0.59 | 0.563 | 0.565 | 0.715 | 0.931 | 1.05 | 0.895 | 1.13 | 0.809 | 1.09 | 1.09 | 1.05 | 0.982 | 0.963
RERF-LC-KJ | 0.76 | 0.905 | 0.949 | 0.904 | 0.937 | 0.409 | 0.458 | 0.419 | 0.463 | 0.412 | 0.632 | 0.585 | 0.529 | 0.656 | 0.573 | 0.986 | 1.16 | 1.03 | 0.989 | 1.01
SK-LU-1 | 0.479 | 0.556 | 0.489 | 0.449 | 0.45 | 0.579 | 0.597 | 0.453 | 0.472 | 0.371 | 0.343 | 0.411 | 0.371 | 0.351 | 0.284 | 1.04 | 1.15 | 0.993 | 1.02 | 0.908
SK-MES-1 | 0.562 | 0.532 | 0.558 | 0.57 | 0.513 | 0.698 | 0.63 | 0.658 | 0.596 | 0.513 | 0.562 | 0.571 | 0.475 | 0.491 | 0.429 | 1.01 | 1.06 | 0.954 | 0.971 | 0.832
SW 900 | 0.846 | 0.726 | 0.761 | 0.757 | 0.739 | 0.745 | 0.735 | 0.602 | 0.515 | 0.581 | 0.623 | 0.574 | 0.659 | 0.514 | 0.49 | 1.03 | 0.961 | 0.791 | 0.867 | 0.753
SW 1573 | 0.568 | 0.567 | 0.531 | 0.636 | 0.449 | 0.383 | 0.405 | 0.381 | 0.412 | 0.314 | 0.549 | 0.669 | 0.569 | 0.738 | 0.559 | 0.996 | 1.12 | 0.974 | 0.922 | 0.944
UMC-11 | 0.762 | 0.761 | 0.794 | 0.72 | 0.539 | 0.333 | 0.366 | 0.334 | 0.314 | 0.262 | 0.461 | 0.477 | 0.45 | 0.459 | 0.421 | 0.961 | 0.966 | 0.993 | 0.963 | 0.861
